Literature values as cited in US20030013767A1, “Method of treating weight loss using creatine” (priority 2001, published 2003).

Experiments:
[1] = system: animal models of neurologic diseases, such as amyotrophic lateral sclerosis
[2] = system: severe deficiency of creatine in brain; details: oral, ten to twelve months
[3] = system: gyrate atrophy; details: gyrate atrophy patients

In the case of `CN(CC(=O)O)C(=N)N` [creatine], the therapeutic outcome [1] is listed as “without success”, the toxicity ([2]; 4 grams/day (305-370 mg/kg/day) to 8 grams/day (600-740 mg/kg/day)) is listed as “no report of toxicity” and the treatment outcome ([2]; 4 grams/day to 8 grams/day) is listed as “some success”. For the same molecule, the “effect on periocular muscles” value [3] was “slight strengthening of the periocular muscles” and the “effect on the atrophy” value [3] was “no effect on the atrophy”.
